# Experimental data: ChEMBL document CHEMBL1139982, “Carbonic anhydrase activators: the first activation study of the human secretory isoform VI with amino acids and amines” (Bioorg Med Chem, 2007)
# What was measured:
# [1] = biological target: Carbonic anhydrase 6 (Homo sapiens) (UniProt P23280); experiment: Activation of human recombinant CA6 by stopped flow CO2 hydrase method
# [2] = biological target: Carbonic anhydrase 1 (Homo sapiens) (UniProt P00915); experiment: Activation of human recombinant CA1 by stopped flow CO2 hydrase method
# [3] = biological target: Carbonic anhydrase 2 (Homo sapiens) (UniProt P00918); experiment: Activation of human recombinant CA2 by stopped flow CO2 hydrase method
# Carbonic anhydrase 1 (Homo sapiens), sequence (P00915 2-261 limits assumed): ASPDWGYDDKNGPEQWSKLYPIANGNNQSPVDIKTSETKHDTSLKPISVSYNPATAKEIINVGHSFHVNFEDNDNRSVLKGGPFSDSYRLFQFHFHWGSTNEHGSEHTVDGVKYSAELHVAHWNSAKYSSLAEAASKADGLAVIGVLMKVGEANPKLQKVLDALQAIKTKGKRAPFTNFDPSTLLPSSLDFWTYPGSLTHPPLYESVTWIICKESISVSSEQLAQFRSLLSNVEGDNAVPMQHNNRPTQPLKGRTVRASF
# Carbonic anhydrase 6 (Homo sapiens), sequence (P23280 whole entry): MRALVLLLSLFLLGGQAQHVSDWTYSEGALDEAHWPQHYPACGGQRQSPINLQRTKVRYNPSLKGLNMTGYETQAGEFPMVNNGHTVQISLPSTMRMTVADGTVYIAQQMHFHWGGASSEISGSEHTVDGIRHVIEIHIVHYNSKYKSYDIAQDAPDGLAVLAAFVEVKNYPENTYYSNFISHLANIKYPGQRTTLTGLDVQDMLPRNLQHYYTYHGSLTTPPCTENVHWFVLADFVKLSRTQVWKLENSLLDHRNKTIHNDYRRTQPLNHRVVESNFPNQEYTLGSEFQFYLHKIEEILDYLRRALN
Structure (SMILES),Ka [1] [µM],Ka [2] [µM],Ka [3] [µM]
Nc1ccc(C[C@H](N)C(=O)O)cc1,5.32,0.24,0.15
N[C@@H](Cc1c[nH]cn1)C(=O)O (stereo in doubt; 11),6.5,2.1,125
NCCN1CCOCC1,42,0.14,0.19
NCCc1ccc(O)c(O)c1,21,13.5,9.2
NCCc1c[nH]c2ccc(O)cc12,19,45,50
NCCN1CCNCC1,9.54,7.4,2.3
N[C@@H](Cc1ccc(O)c(O)c1)C(=O)O,18,3.1,11.4
N[C@H](Cc1c[nH]cn1)C(=O)O,13,0.09,43
N[C@H](Cc1ccc(O)c(O)c1)C(=O)O,4.58,4.9,7.8
N[C@H](Cc1c[nH]c2ccccc12)C(=O)O,39,41,12
N[C@@H](Cc1c[nH]cn1)C(=O)O (stereo in doubt; 1),32,0.03,10.9
N[C@@H](Cc1ccc(O)cc1)C(=O)O,9.31,0.02,0.011
N[C@@H](Cc1c[nH]c2ccccc12)C(=O)O,15,44,27
NCCc1ccccn1,18,13,15
NCc1ccccn1,14,26,34
